In the supplement of paper PMC8633005:

Legend:
Test in all cases: drug sensitivity score (DSS) (DSS (unitless, 0-50 scale)); higher = more sensitive (stronger viability inhibition); extreme values may be limits of the assay
Conditions in all cases: 72 h; culture: 2D
[1] = tested on: SK-MEL-28
How it was run: (§1)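 Drug sensitivity scores, modified area-under-curve measures, were derived from dose-response curves fitted in the in-house Breeze software. The curves came from melanoma cell lines and patient-derived melanoma cultures (1000–1500 cells per well) grown in 2D in 384-well plates holding a 527-compound oncology library. Each compound was dissolved in DMSO or water and tested at five concentrations across a 10,000-fold range. Viability was read by CellTiter-Glo luminescence after 72 h at 37 °C.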

[2] = tested on: WM852
How it was run: as §1

[3] = tested on: FM-MEL-3
How it was run: as §1

[4] = tested on: WM165
How it was run: as §1

[5] = tested on: SK-MEL-2
How it was run: as §1

[6] = tested on: Bowes
How it was run: as §1

[7] = tested on: FM-MEL-2
How it was run: as §1

[8] = tested on: FM-MEL-6
How it was run: as §1

SMILES | drug sensitivity score [1] | drug sensitivity score [2] | drug sensitivity score [3] | drug sensitivity score [4] | drug sensitivity score [5] | drug sensitivity score [6] | drug sensitivity score [7] | drug sensitivity score [8]
CC(C)Oc1ccc(C(=O)N[C@H](CNC(=O)CN(C)C)Cc2ccc(-c3cn4cccc([C@H](C)O)c4n3)cc2)cc1Cl | 5.3 | 9.5 | 6.3 | 13.7 | 13.5 | 19.2 | 7.3 | 4.7
C[C@@]1(C(=O)Nc2ccc(F)nc2)CCCN1c1nc(Nc2cc(C3CC3)n[nH]2)c2cccn2n1 | 2 | 6.9 | 17.9 | 13.4 | 2.9 | 11.7 | 5 | 6.1
Cc1ncc(Cl)cc1NCc1ccc(C(=O)N[C@@H](CC2CCCC2)C(=O)NC2CC2)s1 | 0 | 0 | 4.6 | 0 | 0 | 0 | 0 | 0
Cn1cc(C2=Nc3cc(NC(=O)C(N)C4CCCCC4)cc4c3C2=CNNC4=O)cn1 (stereo not given) | 2.3 | 12.5 | 9.7 | 13.5 | 11 | 15.5 | 3.1 | 11.1
N#Cc1ccc(COC[C@H]2O[C@@H](n3c(NCc4ccc(Cl)c(Cl)c4)nc4c(N)ncnc43)[C@H](O)[C@@H]2O)cc1 | 5.5 | 0 | 6.8 | 5.1 | 0 | 2.7 | 4.2 | 1
COc1ccc(C[C@H](NC(=O)[C@H](C)NC(=O)CN2CCOCC2)C(=O)N[C@@H](Cc2ccccc2)C(=O)C2(C)CO2)cc1 (stereo in doubt) [ONX-0914] | 19.4 | 16.6 | 19.2 | 18.8 | 15.6 | 21.2 | 13.5 | 18.7
Cn1cc(C[C@@H](N)C(=O)O)c2ccccc21 [1-methyl-D-tryptophan] | 0 | 0 | 0 | 0 | 0 | 0 | 0 | 0.6
CC/C(=C(\c1ccc(O)cc1)c1ccc(OCCN(C)C)cc1)c1ccccc1 [4-hydroxytamoxifen] | 4.5 | 7.9 | 7.4 | 3.9 | 2.8 | 0 | 6.6 | 7.8
Nc1ncnc2c1nc(N)n2[C@@H]1O[C@H](CO)[C@@H](O)[C@H]1O [8-amino-adenosine] | 22.6 | 18.1 | 18.5 | 23.2 | 20.9 | 16.3 | 19.4 | 20.5
Nc1ncnc2c1nc(Cl)n2[C@@H]1O[C@H](CO)[C@@H](O)[C@H]1O [8-chloro-adenosine] | 5.1 | 4.6 | 3.3 | 14.8 | 7.7 | 5.2 | 0.9 | 7.5
COc1cc2c(cc1OCCCN1CCCC1)N=C(N)C21CCC1 [A-366] | 0.6 | 2.7 | 0.4 | 2.3 | 0 | 3.8 | 0 | 0.5
COc1ccc(S(=O)(=O)Nc2cccnc2Nc2ccc(O)cc2)cc1 [ABT-751] | 5.7 | 8.9 | 5.7 | 10.3 | 9 | 11 | 4 | 9.2
C[C@H](Nc1ncnc2[nH]cnc12)c1cc2ccc(F)cc2nc1-c1ccccn1 [AMG319] | 0 | 0 | 0 | 0 | 0 | 0 | 1.7 | 0.6
CC(C)[C@@H](CS(=O)(=O)C(C)C)N1C(=O)[C@@](C)(CC(=O)O)C[C@H](c2cccc(Cl)c2)[C@H]1c1ccc(Cl)cc1 [AMG-232] | 0 | 0 | 10.5 | 19 | 0 | 0 | 1.8 | 0
COCCOc1cnc2ccn([C@H](C)c3nnc4c(F)cc(-c5cnn(C)c5)cn34)c(=O)c2c1 [AMG-337] | 0 | 0 | 0 | 0 | 0 | 0 | 0 | 0
CC1CCC(n2c3cnccc3c3cnc(Nc4ccc5c(n4)CCN(C(=O)CO)C5)nc32)CC1 (stereo not given) [AMG-925] | 0 | 1.8 | 0 | 0 | 0 | 0 | 0.7 | 0.7
COCC1(CO)C(=O)C2CCN1CC2 (stereo not given) [APR-246] | 0 | 0 | 0 | 0 | 0 | 0 | 0 | 0
CC(C)[C@H](C(=O)Nc1ccc(C(=O)NO)cc1)c1ccccc1 [AR-42] | 10.3 | 3.9 | 11.8 | 14 | 12.7 | 6 | 9.8 | 11.6

SMILES | drug sensitivity score [1] | drug sensitivity score [2] | drug sensitivity score [3] | drug sensitivity score [4] | drug sensitivity score [5] | drug sensitivity score [6] | drug sensitivity score [7] | drug sensitivity score [8]
Cc1sc2c(c1C)C(c1ccc(Cl)cc1)=N[C@@H](CC(=O)Nc1ccc(OCCOCCOCCOCCNc3cccc4c3C(=O)N(C3CCC(=O)NC3=O)C4=O)cc1)c1nnc(C)n1-2 (stereo not given in full) [ARV-825] | 3.4 | 0 | 4.8 | 8.3 | 2.9 | 14.2 | 4.7 | 6.1
COc1cc(N2CCC(N3CCN(C)CC3)CC2)ccc1Nc1ncnc(Nc2ccccc2S(=O)(=O)C(C)C)n1 [ASP3026] | 2 | 5.2 | 2.6 | 5.5 | 2.7 | 4.8 | 2.4 | 4.4
O=C(NC1CCNCC1)c1n[nH]cc1NC(=O)c1c(Cl)cccc1Cl [AT7519] | 10.5 | 15.3 | 12.8 | 20 | 15.1 | 21.4 | 7.7 | 19.3
O=C(Nc1c[nH]nc1-c1nc2ccc(CN3CCOCC3)cc2[nH]1)NC1CC1 [AT9283] | 2.9 | 2.9 | 0 | 8 | 2.3 | 8 | 0 | 0
CN[C@@H](C)C(=O)N[C@H]1CN(C(=O)CC(C)C)CC[C@H]2CC[C@@H](C(=O)NC(c3ccccc3)c3ccccc3)N2C1=O [AT-406] | 0 | 0 | 0 | 0 | 0.1 | 1.9 | 9.7 | 2.2
CC[C@H](CC#N)OC(=O)N[C@@H](C)c1cccc(NC(=O)Nc2ccc(-c3cnco3)c(OC)c2)c1 [AVN944] | 13.3 | 8.4 | 10.5 | 18.9 | 4.8 | 10.4 | 8.1 | 12.8
COc1cc(N2CCN(C)CC2)ccc1Nc1nccc(-c2cn(C)c3cnccc23)n1 [AZ191] | 0 | 1.9 | 0.6 | 2.7 | 0 | 3.4 | 2.4 | 0
COc1cc(OC2CCN(C)CC2)ccc1Nc1ncc2c(n1)n(C1CCCC1)c(=O)n2C [AZ 3146] | 1.7 | 3.2 | 2.2 | 5.5 | 1.3 | 3.3 | 3.3 | 3
CN(C)CCCOc1ccc(-c2ccc3ncc4c(c3c2)n(C2CCOCC2)c(=O)n4C)cn1 [AZD0156] | 0 | 0 | 0 | 0.3 | 0 | 0 | 0.4 | 0
N[C@@H]1CCCN(c2c(/C=C3\SC(=O)NC3=O)cccc2-c2ccccc2)C1 [AZD1208] | 0.4 | 0 | 2 | 0 | 0 | 0 | 2.8 | 0.8
Cc1cc(Nc2nc(N[C@@H](C)c3ncc(F)cn3)ncc2Cl)[nH]n1 [AZD1480] | 0 | 0 | 0 | 0 | 0 | 0 | 0 | 0
COc1cc2ncnc(Nc3cccc(Cl)c3F)c2cc1OC(=O)N1CCN(C)C[C@H]1C [AZD3759] | 0 | 0 | 0 | 0 | 0 | 0 | 0 | 0
Cc1[nH]nc(C(F)(F)F)c1Cc1sc2c(c1C(=O)N1C[C@](C)(O)CO1)c(=O)n(C)c(=O)n2C(C)C [AZD3965] | 0 | 0 | 0 | 0 | 0 | 8 | 0 | 0.3
COc1cc(CCc2cc(NC(=O)c3ccc(N4CC(C)NC(C)C4)cc3)n[nH]2)cc(OC)c1 (stereo not given) [AZD4547] | 0 | 0 | 0 | 0 | 0 | 0 | 0 | 0
C[C@@H]1COCCN1c1cc(C2([S@](C)(=N)=O)CC2)nc(-c2cc[nH]c3nccc2-3)n1 [AZD6738] | 2.7 | 14.8 | 9.7 | 10.2 | 10.8 | 19.3 | 3.4 | 7
CN(C)C(=O)c1ccc(S(=O)(=O)c2ccc(NC(=O)[C@@](C)(O)C(F)(F)F)c(Cl)c2)cc1 [AZD7545] | 0 | 1.1 | 0 | 0 | 0 | 2.2 | 0 | 0
NC(=O)Nc1cc(-c2cccc(F)c2)sc1C(=O)N[C@H]1CCCNC1 [AZD7762] | 2.2 | 8.4 | 6.1 | 4.7 | 4.2 | 7.7 | 0.2 | 6.5
